# In patent US8088818B2, “Catechol-based derivatives for treating or preventing diabetics” (National Taiwan University, priority 2006, dated 2012):
# Columns and labels:
# type I diabetic rats = test: Safety evaluation: survival rate of type I diabetic rats; type: in vivo, rat; settings: for Survival rate (%) of rats: p.o., after seven days
# Protocol: Table 13 is a safety evaluation, wherein the type I diabetic rats are respectively orally administrated with the compound 370G at the dosage of 10 mg/kg and 30 mg/kg.
# [1] = tested on: rats with coronary artery ligature-reperfusion; test: Coronary artery ligature / reperfusion model of the living rat (area at risk, infarct size); type: in vivo; settings: ischaemia 45 minutes, reperfusion two hours
# Protocol: The grown-up male rats having the weight of 250˜300 grams (Sprague-Dawley strain, purchased BioLASCO Taiwan Co., Ltd.) are anesthetized with 1.25 g/kg urethane by the abdominal cavity injection. After anaesthetization, cut the trachea, connect with the artificial respirator (Harvard Rodent Ventilator Model 983), give 15 ml/kg of the tidal volume, and control the respiratory rate at […], followed by cutting off both sides of the vagus immediately. After the intubation of the right arterial carotis, it is connected to the pressure converter (Statham P23XL transducer) so as to monitor the changes of systemic blood pressure. In addition, the rats' four limbs are connected to the silver electrode, so as to record the changes of the electrocardiogram (ECG). Blood pressures, heartbeats and electrocardiogram curves are recorded and analyzed by the software (MacLab data acquisition system, AD Instrument Pty, Castle Hill, NSW, Australia).
# After all previous preparations have been done, open the ribcage by the thoracotomy and cut off the skin layers and muscles to find the rib. Burn the fourth and fifth rib close to 2 mm of the sternum in an electrical knife and stabilize the injury with the retractor followed by rending the pericardial membrane, separating the left atrial appendage gently by the cottons, and clasping the anterior interventricular branch of the left coronary artery immediately between the left atrial appendage and the pulmonary artery by a needle forceps having a silk yarn with a hook. Put loops on both ends of silk yarn to seal the wound by unclamping the retractor. Balance in 15 minutes, and if there exists cardiac arrhythmia or the systolic pressure is lower than 80 mmHg, it will be eliminated.
# After the balance, the acute cardiac muscle ischaemia is caused by pushing the loop passed by a silk yarn with a hemostat downwards to be stabilized. Then, unclamp the hemostat and uplift the loop to perform a reperfusion of the coronary artery being ligated by the silk yarn. […] If the same surgical procedure is performed, the rat without administrating the drug and performing an ischaemia and an ischaemia/reperfusion is regarded as the sham group. The rundown of the ischaemia and the ischaemia/reperfusion of the present test is as follows.
# Perform an ischaemia for 45 minutes and perform an ischaemia/reperfusion for 2 hours. Administrate by injecting the drug into the abdominal cavity after perform the ischaemia for 15 minutes.
# Inject the approximately 2 ml, 1% methylene blue into the ischaemic area via a jugular vein, where the non-ischemic area is dyed as purple and the ischemic area or area at risk is retained as red. Subsequently, the heart is immediately took out and washed by the physiological salt solution to remove the connective tissue of the atrium and the surplus water. Cut the undyed ischemic area and weight the total ventricle to calculate the ischemic area of the ventricle. Area at risk (% of total ventricular)=(Weight of risk area)/(Total ventricular weight)×100%.
# Cut the ischemic area into a slice with the thickness of approximately 1 mm. Immerse the slice into a TTC (2,3,5-triphenyltetrazolium chloride, in saline) solution, and heat the resultant solution at the 37[…] incubator for 30 minutes, followed by replacing the solvent with 10% formaldehyde solution to preserve the resulting solution for two weeks. The living cells are able to produce the dehydrogenase, which could reduce TTC to a crimson formazan precipitate, whereas the dead cells are unable to produce dehydrogenase, which decolor the formazan as a gray precipitate. Cut and weight the gray infraction area and calculate the ratio. Infract Size (% of risk area)=(Weight of infraction)/(Weight of risk area)×100%.
smiles,measurement,setting,value
O=C(/C=C/c1ccc(O)c(O)c1)NCCc1ccccc1 [370G (45)],Survival rate (%) of rats,type I diabetic rats; 10 mg/kg,100%
same,Survival rate (%) of rats,type I diabetic rats; 30 mg/kg,100%
same,effect on survival rate (in words),"type I diabetic rats; oral 10 mg/kg and 30 mg/kg, seven days",do not affect the survival rate
same,ratio of the areas at risk in the overall area,[1]; 15 mg/kg,41.1±1.3%
same,ratio of the areas at risk in the overall area,[1]; 10^−6 mg/kg,39.1±1.9%
same,infract size (% of risk area),[1]; 10^−5 mole/kg (approximately 2.8 mg/kg),68.8±2.9%
same,infract size (% of risk area),[1]; 10^−6 mole/kg (approximately 0.28 mg/kg),70.9±2.8
same,infract size (% of risk area),[1],62.8±1.8%
same,ratio of the areas at risk in the overall area,[1],36.7±2.3%
